Measured values reported in BindingDB's records for doi:10.1111/cbdd.12902 (Shahid Bahonar University of Kerman, 2017).

What was measured:
[1] = target: Acetylcholinesterase (Electrophorus electricus, UniProt O42275); test: Cholinesterases Inhibition Assay
Description: (§1) The stock solutions of the target compounds were prepared in a mixture of DMSO (1 ml) and ethanol (9 ml) and diluted with 0.1 MKH2PO4/K2HPO4 buffer (pH 8.0) to obtain final concentrations. […] of substrate (acetylthiocholine iodide 0.075 m) was added to the test solution to obtain final concentration of […]. All experiments were performed based on the previously described method.[Nadri et al., Bioorg. […] Spectrophotometric measurements were performed on a UV Unico double-beam spectrophotometer. The same method was also taken for BuChE inhibition assay.

[2] = target: Carboxylic ester hydrolase (Equus caballus, UniProt Q9N1N9); test: Cholinesterases Inhibition Assay
Carboxylic ester hydrolase, sequence (Q9N1N9 whole entry): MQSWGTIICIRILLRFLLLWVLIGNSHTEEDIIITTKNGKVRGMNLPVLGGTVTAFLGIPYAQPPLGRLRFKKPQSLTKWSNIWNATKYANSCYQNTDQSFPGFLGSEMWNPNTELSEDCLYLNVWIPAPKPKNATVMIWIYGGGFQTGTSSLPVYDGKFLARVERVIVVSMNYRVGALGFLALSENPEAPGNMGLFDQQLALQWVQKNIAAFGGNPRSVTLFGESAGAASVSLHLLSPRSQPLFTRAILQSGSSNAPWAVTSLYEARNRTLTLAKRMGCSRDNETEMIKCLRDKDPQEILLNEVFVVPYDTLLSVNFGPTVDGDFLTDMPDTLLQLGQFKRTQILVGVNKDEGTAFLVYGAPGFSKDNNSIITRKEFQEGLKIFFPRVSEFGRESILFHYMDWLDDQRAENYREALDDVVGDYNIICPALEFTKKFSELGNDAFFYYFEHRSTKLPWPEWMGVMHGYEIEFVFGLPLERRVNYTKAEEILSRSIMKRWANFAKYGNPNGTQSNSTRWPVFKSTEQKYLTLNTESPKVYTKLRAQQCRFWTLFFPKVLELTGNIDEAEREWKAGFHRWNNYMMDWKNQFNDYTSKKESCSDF
Description: as §1

Acetylcholinesterase, sequence (O42275 whole entry): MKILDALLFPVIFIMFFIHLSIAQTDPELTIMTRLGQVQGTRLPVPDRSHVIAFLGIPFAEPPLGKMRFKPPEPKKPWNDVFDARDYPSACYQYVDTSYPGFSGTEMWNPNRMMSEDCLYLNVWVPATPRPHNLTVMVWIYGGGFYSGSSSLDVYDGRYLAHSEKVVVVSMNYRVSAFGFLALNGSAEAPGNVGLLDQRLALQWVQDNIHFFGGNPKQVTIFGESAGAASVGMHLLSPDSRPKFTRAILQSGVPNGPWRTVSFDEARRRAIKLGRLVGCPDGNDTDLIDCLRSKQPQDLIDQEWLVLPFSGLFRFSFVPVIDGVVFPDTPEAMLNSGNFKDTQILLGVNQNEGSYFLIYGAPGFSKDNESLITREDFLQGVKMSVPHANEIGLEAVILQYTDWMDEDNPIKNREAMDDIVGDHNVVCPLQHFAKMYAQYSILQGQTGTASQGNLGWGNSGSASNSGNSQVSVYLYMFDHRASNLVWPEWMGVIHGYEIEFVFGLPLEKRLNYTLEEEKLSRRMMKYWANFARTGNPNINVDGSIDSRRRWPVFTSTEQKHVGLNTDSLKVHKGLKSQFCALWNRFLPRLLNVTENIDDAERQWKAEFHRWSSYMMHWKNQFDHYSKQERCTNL

| Compound | IC50 [1] [µM] | IC50 [2] [µM] |
| --- | --- | --- |
| c1ccc(CN2CCN(Cc3ccc(-c4nc5ccccc5o4)cc3)CC2)cc1 [2-(4-((4-Benzylpiperazin-1-yl)methyl)phenyl)benzo[d]oxazole (6i)] | > 100 | > 100 |
| c1ccc(CC2CCN(Cc3ccc(-c4nc5ccccc5o4)cc3)CC2)cc1 [2-(4-((4-Benzylpiperidin-1-yl)methyl)phenyl)benzo[d]oxazole (6b)] | > 100 | > 100 |
| CCN1CCN(Cc2ccc(-c3nc4ccccc4o3)cc2)CC1 [2-(4-((4-Ethylpiperazin-1-yl)methyl)phenyl)benzo[d]oxazole (6g)] | 38.2 | > 100 |
| CN1CCN(Cc2ccc(-c3nc4ccccc4o3)cc2)CC1 [2-(4-((4-Methylpiperazin-1-yl)methyl)phenyl)benzo[d]oxazole (6f)] | 62.2 | > 100 |
| c1ccc(N2CCN(Cc3ccc(-c4nc5ccccc5o4)cc3)CC2)cc1 [2-(4-((4-Phenylpiperazine-1-yl)methyl)phenyl)benzo[d]oxazole (6h)] | > 100 | > 100 |
| c1ccc2oc(-c3ccc(CN4CCNCC4)cc3)nc2c1 [2-(4-((Piperazin-1-yl)methyl)phenyl)benzo[d]oxazole (6e)] | 3.45 | 21.5 |
| c1ccc2oc(-c3ccc(CN4CCCCC4)cc3)nc2c1 [2-(4-((Piperidin-1-yl)methyl)phenyl)benzo[d]oxazole (6a)] | 1.03 | 6.6 |
| c1ccc2oc(-c3ccc(CN4CCCC4)cc3)nc2c1 [2-(4-((Pyrrolidin-1-yl)methyl)phenyl)benzo[d]oxazole (6j)] | 1.35 | 8.1 |
| c1ccc2oc(-c3ccc(CN4CCOCC4)cc3)nc2c1 [2-(4-(Morpholinomethyl)phenyl)benzo[d]oxazole (6c)] | 20.1 | > 100 |
| c1ccc2oc(-c3ccc(CN4CCSCC4)cc3)nc2c1 [2-(4-(Thiomorpholinomethyl)phenyl)benzo[d]oxazole (6d)] | 2.55 | 16.9 |
| CN(Cc1ccccc1)Cc1ccc(-c2nc3ccccc3o2)cc1 [(4-(Benzo[d]oxazol-2-yl)phenyl)-N-benzyl-N-methylmethanamine (6l)] | 30.8 | > 100 |
| c1ccc(CNCc2ccc(-c3nc4ccccc4o3)cc2)cc1 [(4-(Benzo[d]oxazol-2-yl)phenyl)-Nbenzylmethylamine (6k)] | 25.4 | > 100 |
| c1ccc(CN2CCC(NCc3ccc(-c4nc5ccccc5o4)cc3)CC2)cc1 [N-((4-(benzo[d]oxazol-2-yl)phenyl)methyl)-1-benzylpiperidin-4-amine (6n)] | 7.76 | 50.1 |
| CCN(Cc1ccccc1)Cc1ccc(-c2nc3ccccc3o2)cc1 [N-((4-(benzo[d]oxazol-2-yl)phenyl)methyl)-N-benzylethanamine (6m)] | 56.4 | > 100 |
